Laboratory results from publication PMC7614388, “Diversification in the inositol tris/tetrakisphosphate kinase (ITPK) family: crystal structure and enzymology of the outlier AtITPK4” (Biochemical Journal, 2023).

Legend:
AtITPK4 = biological target: T1, AtITPK4 (Arabidopsis thaliana, UniProt O80568); test: HPLC kinase assay, substrate inhibition fit; assay type: biochemical; details: 1 mM Ins(1,4,6)P3; ATP 0-5 mM; 6 mM MgCl2; 20 mM HEPES pH 7.3; 25 °C; 3 µM enzyme; substrate inhibition at high ATP
T1 construct: gene ITPK4; full-length; pOPINE, non-cleavable C-terminal 6xHis tag kept; Ni-NTA purified; HAD-like domain 1-150, ATP-grasp kinase domain from 151; no evidence of homo-oligomers
T1 sequence (O80568 whole entry, the tested form may be a part): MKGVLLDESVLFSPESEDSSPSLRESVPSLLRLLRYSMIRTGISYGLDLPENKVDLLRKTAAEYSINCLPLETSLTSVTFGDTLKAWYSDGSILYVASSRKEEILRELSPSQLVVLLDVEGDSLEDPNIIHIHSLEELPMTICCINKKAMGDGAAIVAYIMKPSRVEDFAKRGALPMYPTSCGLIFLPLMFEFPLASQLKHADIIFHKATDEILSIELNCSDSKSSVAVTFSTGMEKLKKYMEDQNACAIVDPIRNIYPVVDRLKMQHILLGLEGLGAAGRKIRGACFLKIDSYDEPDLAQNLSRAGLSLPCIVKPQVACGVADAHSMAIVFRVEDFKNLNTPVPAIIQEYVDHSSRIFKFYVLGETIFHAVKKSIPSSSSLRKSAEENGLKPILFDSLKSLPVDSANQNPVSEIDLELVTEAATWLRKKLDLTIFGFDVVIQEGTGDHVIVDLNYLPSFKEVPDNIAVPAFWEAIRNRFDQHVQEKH

AtITPK1 = biological target: T2, AtITPK1 (Arabidopsis thaliana, UniProt Q9SBA5); test: phosphate release assay; assay type: biochemical; details: 1 mM ATP; 10 µM enzyme; no inositol phosphate
T2 construct: gene ITPK1; His tag with 3C cleavage implied
T2 sequence (Q9SBA5 1-319): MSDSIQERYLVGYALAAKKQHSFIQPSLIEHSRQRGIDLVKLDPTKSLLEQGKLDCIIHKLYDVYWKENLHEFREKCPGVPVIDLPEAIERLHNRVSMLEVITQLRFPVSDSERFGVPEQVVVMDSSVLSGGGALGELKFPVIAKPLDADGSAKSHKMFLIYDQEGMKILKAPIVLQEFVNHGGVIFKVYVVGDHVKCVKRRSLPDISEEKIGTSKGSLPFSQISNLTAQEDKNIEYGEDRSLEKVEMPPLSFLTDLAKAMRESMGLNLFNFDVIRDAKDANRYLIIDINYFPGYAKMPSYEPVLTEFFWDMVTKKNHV

Ki (AtITPK4): 3.3 mM
SMILES: Nc1ncnc2c1ncn2[C@@H]1O[C@H](COP(=O)(O)OP(=O)(O)OP(=O)(O)O)[C@@H](O)[C@H]1O [ATP]
phosphate release assay (AtITPK1): AtITPK1 showed much greater phosphate release from ATP in the absence of inositol phosphate substrate
